Measured values: ChEMBL document CHEMBL6121060, “Discovery and Development of CFTR Modulators for the Treatment of Cystic Fibrosis” (J Med Chem, 2025)
Values after ≈ are worked out from the molar mass of the structure shown. Each block holds one compound with its values, some of them ahead of it.

How the values were obtained:
[1] = target: T1, Cystic fibrosis transmembrane conductance regulator (Homo sapiens, UniProt P13569, F508DEL); assay: Activation of CFTR F508del mutant (unknown origin)
[2] = Solubility of compound at pH 6.8 incubated for 12 hrs by HPLC analysis; assay type: physicochemical; details: buffer
[3] = Metabolic stability in rat liver microsomes assessed as intrinsic clearance; assay type: ADME, Microsome
[4] = target: T1, Cystic fibrosis transmembrane conductance regulator; assay: Potentiation of CFTR F508del mutant (unknown origin)
[5] = AUC in rat at 3 mg/kg, po; details: in vivo
[6] = target: T1, Cystic fibrosis transmembrane conductance regulator; assay: Potentiation of CFTR F508del mutant (unknown origin) expressed in NIH3T3 cells; assay type: cell-based
[7] = target: T2, PXR (nuclear receptor subfamily 1 group I member 2) (Homo sapiens, UniProt O75469); assay: Activation of PXR (unknown origin) at 10 uM relative to control; details: read-out: Activity
T2 sequence (O75469 whole entry): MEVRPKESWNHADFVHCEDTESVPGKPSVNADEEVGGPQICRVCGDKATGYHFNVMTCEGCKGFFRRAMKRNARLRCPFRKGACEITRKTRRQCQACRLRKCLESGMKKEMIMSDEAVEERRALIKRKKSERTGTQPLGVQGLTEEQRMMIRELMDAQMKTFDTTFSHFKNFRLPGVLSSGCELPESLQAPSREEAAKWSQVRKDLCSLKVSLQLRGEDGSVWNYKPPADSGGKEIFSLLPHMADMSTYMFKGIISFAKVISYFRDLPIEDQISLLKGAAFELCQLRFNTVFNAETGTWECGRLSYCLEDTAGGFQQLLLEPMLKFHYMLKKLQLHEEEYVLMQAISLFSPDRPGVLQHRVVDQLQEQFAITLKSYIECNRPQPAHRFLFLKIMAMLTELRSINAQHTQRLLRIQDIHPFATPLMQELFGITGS

[8] = Apparent permeability across apical to basolateral side in MDCK cells; assay type: ADME, cell-based, Canis lupus familiaris; details: dog
[9] = Oral bioavailability in rat; assay type: ADME, organism-based; details: in vivo
[10] = target: T3, Nuclear receptor subfamily 1 group I member 2 (Homo sapiens, UniProt O75469); assay: Activation of PXR (unknown origin) at 10 uM relative to rifampicin
T3 sequence (O75469 whole entry): T2 sequence (O75469 whole entry)

[11] = Plasma protein binding in human; assay type: ADME, cell-free
[12] = Volume of distribution at steady state in rat at 1 mg/kg, iv; assay type: ADME, organism-based; details: in vivo, read-out: Vdss
[13] = Clearance in rat at 1 mg/kg, iv; assay type: ADME, organism-based; details: in vivo
[14] = Mean residence time in rat at 1 mg/kg, iv; assay type: ADME, organism-based; details: in vivo
[15] = Intrinsic clearance in mouse liver microsomes by HPLC-MS/MS analysis; assay type: ADME, Microsome; details: read-out: CLH (converted)
[16] = Intrinsic clearance in rat liver microsomes by HPLC-MS/MS analysis; assay type: ADME, Microsome; details: read-out: CLH (converted)
[17] = Clearance in rat liver microsomes by LC-MS/MS analysis; assay type: ADME, Microsome
[18] = Volume of distribution at steady state in rat at 3 mg/kg, iv measured for 24 hrs by LC-MS/MS analysis; assay type: ADME, organism-based; details: in vivo, read-out: Vdss
[19] = Half life in rat at 3 mg/kg, iv measured for 24 hrs by LC-MS/MS analysis; assay type: ADME, organism-based; details: in vivo

T1 sequence (P13569 as listed by the source): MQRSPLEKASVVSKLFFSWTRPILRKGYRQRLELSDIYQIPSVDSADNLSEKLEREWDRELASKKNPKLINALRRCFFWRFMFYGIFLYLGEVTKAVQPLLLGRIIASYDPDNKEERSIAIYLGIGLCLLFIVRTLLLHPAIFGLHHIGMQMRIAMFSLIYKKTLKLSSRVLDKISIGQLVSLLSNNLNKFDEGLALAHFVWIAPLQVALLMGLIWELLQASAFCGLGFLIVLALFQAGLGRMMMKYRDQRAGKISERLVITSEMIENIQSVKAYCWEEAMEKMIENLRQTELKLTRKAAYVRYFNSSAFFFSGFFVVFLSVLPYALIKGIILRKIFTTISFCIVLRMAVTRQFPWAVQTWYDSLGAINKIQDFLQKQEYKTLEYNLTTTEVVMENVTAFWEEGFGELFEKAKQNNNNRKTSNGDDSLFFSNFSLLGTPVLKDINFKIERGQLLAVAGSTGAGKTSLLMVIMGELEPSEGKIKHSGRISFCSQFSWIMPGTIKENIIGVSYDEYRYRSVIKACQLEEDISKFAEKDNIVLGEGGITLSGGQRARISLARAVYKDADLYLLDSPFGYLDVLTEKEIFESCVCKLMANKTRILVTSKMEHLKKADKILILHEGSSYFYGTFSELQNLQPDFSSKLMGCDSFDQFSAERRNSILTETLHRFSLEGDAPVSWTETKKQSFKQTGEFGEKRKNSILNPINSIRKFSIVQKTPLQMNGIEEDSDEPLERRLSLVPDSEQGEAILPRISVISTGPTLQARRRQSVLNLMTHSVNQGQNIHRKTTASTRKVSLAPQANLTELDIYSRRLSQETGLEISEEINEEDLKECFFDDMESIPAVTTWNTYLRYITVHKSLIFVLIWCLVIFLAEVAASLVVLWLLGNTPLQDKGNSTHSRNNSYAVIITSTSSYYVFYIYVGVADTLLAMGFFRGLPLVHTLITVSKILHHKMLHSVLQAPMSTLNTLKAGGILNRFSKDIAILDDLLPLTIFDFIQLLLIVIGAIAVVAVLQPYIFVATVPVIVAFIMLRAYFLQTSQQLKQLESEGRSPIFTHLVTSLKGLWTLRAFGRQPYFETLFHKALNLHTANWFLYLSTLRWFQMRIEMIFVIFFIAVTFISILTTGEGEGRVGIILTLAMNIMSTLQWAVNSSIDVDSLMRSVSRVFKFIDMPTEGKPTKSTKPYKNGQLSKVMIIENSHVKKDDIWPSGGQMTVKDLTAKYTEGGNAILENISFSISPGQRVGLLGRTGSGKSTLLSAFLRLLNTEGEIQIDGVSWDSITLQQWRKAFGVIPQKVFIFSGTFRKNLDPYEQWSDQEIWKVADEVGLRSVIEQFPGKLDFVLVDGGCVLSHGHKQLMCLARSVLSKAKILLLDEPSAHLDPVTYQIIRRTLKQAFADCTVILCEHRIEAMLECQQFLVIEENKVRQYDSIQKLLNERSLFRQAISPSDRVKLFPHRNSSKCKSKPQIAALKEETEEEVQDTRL

Structure (SMILES): C[C@@H]1CN(c2nc(-n3ccc(OCCC4(C(F)(F)F)CC4)n3)ccc2C(=O)NS(=O)(=O)c2cccc(F)c2)C(C)(C)C1
EC50 [1]: 50 nM | AUC [5]: 2700 ng·h/mL

Structure (SMILES): Cc1nn(C)cc1S(=O)(=O)NC(=O)c1ccc(-n2ccc(OCCC3(C(F)(F)F)CC3)n2)nc1N1C[C@@H](C)CC1(C)C
bioavailability [9]: 65% | EC50 [6]: 130 nM | activity at 10 µM [7]: 4% | Papp A→B [8]: 11.7 ×10⁻⁶ cm/s

Structure (SMILES): C[C@@H]1CN(c2nc(-n3ccc(OCC(C)(C)C)n3)ccc2C(=O)NS(=O)(=O)c2cccnc2N)C(C)(C)C1
EC50 [1]: 60 nM | Activity [10]: 2% | AUC [5]: 1200 ng·h/mL

Structure (SMILES): Cc1nn(C)cc1S(=O)(=O)NC(=O)c1ccc(-n2ccc(OCC(C)(C)C(F)(F)F)n2)nc1N1C[C@@H](C)CC1(C)C [ELEXACAFTOR]
bioavailability [9]: 83% | EC50 [6]: 70 nM | activity at 10 µM [7]: 2% | Papp A→B [8]: 4.5 ×10⁻⁶ cm/s

Structure (SMILES): COc1ccc(Br)c2c1CCCC2C(=O)NS(=O)(=O)c1cccc2ncccc12 (configuration not stated)
EC50 [1]: < 3000 nM

Structure (SMILES): Cc1ccc(F)cc1-c1nc(NS(=O)(=O)c2cccc(N3CCC[C@@](C)(CC(=O)O)C3)n2)ccc1C(F)(F)F
EC50 [1]: 2 nM

Structure (SMILES): CC1(C)Cc2c(sc(NC(=O)[C@@H](O)C(C)(C)C)c2C(N)=O)C(C)(C)O1
EC50 [1]: 127 nM

Structure (SMILES): Cc1nn(C)cc1S(=O)(=O)NC(=O)c1ccc(-n2ccc(OCC3(C(F)(F)F)CC3)n2)nc1N1C[C@@H](C)CC1(C)C
EC50 [6]: 220 nM | activity at 10 µM [7]: 4% | Papp A→B [8]: 7.1 ×10⁻⁶ cm/s

Structure (SMILES): CC1(C)Cc2c(sc(NC(=O)C3(CO)CC3)c2C(N)=O)C(C)(C)O1
EC50 [1]: 2.7 nM

Structure (SMILES): CCc1ccccc1-c1nc(NS(=O)(=O)c2cccc(N(CCCC(=O)O)C(C)C)n2)ccc1C(F)(F)F
EC50 [1]: 2 nM

Structure (SMILES): CC1(C)Cc2c(sc(NC(=O)c3ccccc3O)c2C(N)=O)C(C)(C)O1
EC50 [1]: 15 nM

Structure (SMILES): Cc1nn(C)cc1S(=O)(=O)NC(=O)c1ccc(-n2ccc(OCC3(C(F)(F)F)CCC3)n2)nc1N1C[C@@H](C)CC1(C)C
bioavailability [9]: 66% | EC50 [6]: 130 nM | activity at 10 µM [7]: 3% | Papp A→B [8]: 2.7 ×10⁻⁶ cm/s

Structure (SMILES): COc1ccc(C2CCC2)c2c1C(C(=O)NS(=O)(=O)c1cccc3ccccc13)C2 (configuration not stated)
EC50 [1]: < 3000 nM

Structure (SMILES): CC(C)(CN1CCCCCc2ccccc2-c2nc(ccc2C(F)(F)F)NS(=O)(=O)c2cccc1n2)C(=O)O
EC50 [1]: 4 nM

Structure (SMILES): COc1ccc(C2CCC2)cc1C1(C(=O)NS(=O)(=O)c2cccc3ccccc23)CC1
EC50 [1]: < 3000 nM

Structure (SMILES): CCOc1cccc([C@H]2C[C@@]2(C(=O)NS(=O)(=O)c2cccc3nc(C)ccc23)c2cc(C)ccc2OC)n1
EC50 [1]: 5 nM

Structure (SMILES): CCOc1cccc([C@@H]2C[C@]2(C(=O)NS(=O)(=O)c2cccc3nc(C)ccc23)c2cc(C)ccc2OC)n1
EC50 [1]: 90 nM

Structure (SMILES): CCOc1ccc(CC)cc1[C@]1(C(=O)NS(=O)(=O)c2cccc3nc(C)ccc23)CCCO1
EC50 [1]: > 300 nM

Next, values leading:

EC50 [1]: 100 nM
Structure (SMILES): Cc1ccccc1-c1nc(NS(=O)(=O)c2cccc(N3CCC[C@H](CC(=O)O)C3)n2)ccc1C(F)(F)F

EC50 [1]: 5.6 nM
Structure (SMILES): Nc1cc(S(=O)(=O)c2ccc(OC(F)(F)F)cc2)cnc1-c1nnc(CO)o1 [NAVOCAFTOR]

EC50 [1]: 5.8 nM
Structure (SMILES): Nc1cc(S(=O)(=O)c2ccc(OC(F)(F)F)cc2)cnc1-c1nnc(C(O)C(F)(F)F)o1 (configuration not stated)

solubility at 12 h [2]: 2 µg/mL (≈ 6.99 µM) | CLint [3]: 351 µL/min/mg | EC50 [4]: 70 nM
Structure (SMILES): COC(=O)c1nc(-c2ccco2)c(C(F)(F)F)cc1N

solubility at 12 h [2]: 170 µg/mL (≈ 447 µM) | CLint [3]: 55.8 µL/min/mg
Structure (SMILES): Nc1cc(C(F)(F)F)c(Br)nc1C(=O)NCCC(F)(F)F

EC50 [6]: 170 nM | activity at 10 µM [7]: 3% | Papp A→B [8]: 3.8 ×10⁻⁶ cm/s
Structure (SMILES): Cc1c(S(=O)(=O)NC(=O)c2ccc(-n3ccc(OCC(C)(C)C(F)(F)F)n3)nc2N2C[C@@H](C)CC2(C)C)cnn1C

EC50 [1]: 1.6 nM
Structure (SMILES): Nc1cc(S(=O)(=O)c2ccc(C(F)(F)F)cc2)cnc1-c1nnc(CO)o1

solubility at 12 h [2]: 230 µg/mL (≈ 576 µM) | CLint [3]: 7.38 µL/min/mg | EC50 [4]: 10 nM | PPB [11]: 92.3% | Vd [12]: 6.4 L/kg | clearance [13]: 15 mL/min/kg | MRT [14]: 7.2 h
Structure (SMILES): C[C@](O)(CNC(=O)c1nc(C(F)(F)F)c(C(F)(F)F)cc1N)C(F)(F)F

EC50 [1]: 5 nM | CLint scaled [15]: 300 mL/min/kg | CLint scaled [16]: 133 mL/min/kg | CLH [17]: 31.7 mL/min/kg | Activity [10]: 80% | Vd [18]: 3.2 L/kg | half-life [19]: 1.3 h
Structure (SMILES): CC(O)CNC(=O)c1ncc(S(=O)(=O)N2CCC(OC(F)(F)F)CC2)cc1N (configuration not stated)

solubility at 12 h [2]: 13 µg/mL (≈ 37.6 µM) | CLint [3]: 342 µL/min/mg | EC50 [4]: 360 nM
Structure (SMILES): COC(=O)c1nc(I)c(C(F)(F)F)cc1N

EC50 [1]: 1.8 nM
Structure (SMILES): CC(O)(c1nnc(-c2ncc(S(=O)(=O)c3ccc(OC(F)(F)F)cc3)cc2N)o1)C(F)(F)F (configuration not stated)
